Data as given in US20020137929A1, “1 - (3-heterocyclylphenyl) isothiourea, -isourea, -guanidine and -amidine herbicidal agents” (Intellectual Property Department, BASF Aktiengesellschaft, priority 1998, published 2002).

Legend:
CASOB (Sicklepod) [1] = experiment: Postemergence herbicidal evaluation; format: in vivo, Cassia obtusifolia; conditions: postemergence
Procedure, shortened: (§1)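 Seedlings grown about two weeks were sprayed at 40 psi with compound dispersed in 50/50 acetone/water plus 0.5% TWEEN 20, at about 0.0156 to 0.500 kg/ha. Plants were kept in the greenhouse and scored 4–5 weeks later on a 0–9 visual scale against untreated controls.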

ZEAMX (Corn, Field) = experiment: Preemergence herbicidal evaluation; format: in vivo, Zea mays; conditions: preemergence, rated 4-5 weeks after treatment, 0-9 scale
Procedure, shortened: (§2)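 Steps: mix seeds into potting soil; plant atop ~1 inch soil; spray compound in aqueous acetone (~0.0156-0.500 kg/ha equivalent); maintain in greenhouse with watering; rate visually 0-9 versus control at 4-5 weeks.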

ECHCG (Barnyardgrass) = experiment: Postemergence herbicidal evaluation; format: in vivo, Echinochloa crus-galli; conditions: postemergence
Procedure, shortened: as §1

CASOB (Sicklepod) [2] = experiment: Preemergence herbicidal evaluation; format: in vivo, Cassia obtusifolia; conditions: preemergence, rated 4-5 weeks after treatment, 0-9 scale
Procedure, shortened: as §2

[3] = test system: GLXMAW (Soybean, Williams); experiment: Postemergence herbicidal evaluation; format: in vivo, Glycine max, (L.) Merr. cv Williams; conditions: postemergence
Procedure, shortened: as §1

AMBEL (Ragweed, Common) = experiment: Postemergence herbicidal evaluation; format: in vivo, Ambrosia artemisifolia; conditions: postemergence
Procedure, shortened: as §1

GALAP (Galium) [4] = experiment: Postemergence herbicidal evaluation; format: in vivo, Galium aparine; conditions: postemergence
Procedure, shortened: as §1

ORYSAT (Rice, Tebonnet) = experiment: Postemergence herbicidal evaluation; format: in vivo, Oryza sativa, (L.) Tebonnet; conditions: postemergence
Procedure, shortened: as §1

[5] = test system: SAGPY (Arrowhead (Pygmaea)); experiment: Preemergence weed control under flooded paddy conditions; format: in vivo, Sagittaria pygmaea; conditions: rated 3-4 weeks after treatment
Procedure, shortened: (§3)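 First, seeds or propagules go into the top 0.5 cm of silt loam; next, water is held 1.5 to 3 cm over the soil; then compound (50/50 acetone/water) is pipetted into it at about 0.0313 to 0.500 kg/ha; finally plants are rated visually 0-9 after three to four weeks.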

[6] = test system: CHEAL (Lambsquarters, Common); experiment: Postemergence herbicidal evaluation; format: in vivo, Chenopodium album; conditions: postemergence
Procedure, shortened: as §1

GALAP (Galium) [7] = experiment: Preemergence herbicidal evaluation; format: in vivo, Galium aparine; conditions: preemergence, rated 4-5 weeks after treatment, 0-9 scale
Procedure, shortened: as §2

CYPSE (Flatsedge) [8] = experiment: Preemergence weed control under flooded paddy conditions; format: in vivo, Cyperus serotinus; conditions: rated 3-4 weeks after treatment
Procedure, shortened: as §3

CYPSE (Flatsedge) [9] = experiment: Postemergence weed control under flooded paddy conditions; format: in vivo, Cyperus serotinus; conditions: postemergence weeds, rated 3 to 4 weeks after treatment
Procedure, shortened: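 Herbicidal effect is judged by eye on a 0–9 scale versus control, 3–4 weeks after dosing. Dosing is into flood water kept 1.5–3 cm over the soil, at about 0.0313–0.500 kg/ha in aqueous/acetone 50/50 v/v, on 3–5 cm weeds and 1.5–2.5-leaf rice seedlings.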

CYPIR (Rice Flatsedge) = experiment: Preemergence weed control under flooded paddy conditions; format: in vivo, Cyperus iria; conditions: rated 3-4 weeks after treatment
Procedure, shortened: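 Herbicidal effect is scored visually on a 0-9 scale against an untreated control, three to four weeks after compounds are pipetted into the flood water (1.5 to 3 cm deep) over seeds planted in silt loam at 0.5 cm depth. Rates: about 0.0313 to 0.500 kg/ha.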

SETVI (Foxtail, Green) = experiment: Postemergence herbicidal evaluation; format: in vivo, Setaria viridis; conditions: postemergence
Procedure, shortened: as §1

`C=CCN1C(=O)C(CC(=O)NOC)SC1=Nc1cc(-n2c(=O)cc(C(F)(F)F)n(C)c2=O)c(F)cc1Cl` (stereo not drawn) [Compound 85] was tested, and the CASOB herbicidal rating (CASOB (Sicklepod) [1]; rate 0.0156 kg/ha) was 0.0, the CASOB herbicidal rating (CASOB (Sicklepod) [1]; rate 0.0313 kg/ha) was 0.0 and the CASOB herbicidal rating (CASOB (Sicklepod) [1]; rate 0.0625 kg/ha) was 0.0. It also gave a CASOB herbicidal rating (CASOB (Sicklepod) [1]; rate 0.1250 kg/ha) of 2.0, a ZEAMX rating (ZEAMX (Corn, Field); 0.0156 kg/ha) of 0.0 and a ZEAMX rating (ZEAMX (Corn, Field); 0.0313 kg/ha) of 0.0. It also gave a ZEAMX rating (ZEAMX (Corn, Field); 0.0625 kg/ha) of 0.0, a ZEAMX rating (ZEAMX (Corn, Field); 0.1250 kg/ha) of 2.0 and a ZEAMX rating (ZEAMX (Corn, Field); 0.2500 kg/ha) of 5.0. It also gave a ZEAMX rating (ZEAMX (Corn, Field); 0.5000 kg/ha) of 9.0, an ECHCG herbicidal rating (ECHCG (Barnyardgrass); rate 0.0156 kg/ha) of 0.0 and an ECHCG herbicidal rating (ECHCG (Barnyardgrass); rate 0.0313 kg/ha) of 0.0. For the same molecule, the ECHCG herbicidal rating (ECHCG (Barnyardgrass); rate 0.0625 kg/ha) was 0.0, the ECHCG herbicidal rating (ECHCG (Barnyardgrass); rate 0.1250 kg/ha) was 9.0 and the CASOB rating (CASOB (Sicklepod) [2]; 0.0156 kg/ha) was 0.0. The CASOB rating (CASOB (Sicklepod) [2]; 0.0313 kg/ha) was 0.0, the CASOB rating (CASOB (Sicklepod) [2]; 0.0625 kg/ha) was 0.0 and the CASOB rating (CASOB (Sicklepod) [2]; 0.1250 kg/ha) was 0.0. The CASOB rating (CASOB (Sicklepod) [2]; 0.2500 kg/ha) was 0.0, the CASOB rating (CASOB (Sicklepod) [2]; 0.5000 kg/ha) was 9.0 and the GLXMAW herbicidal rating ([3]; rate 0.0156 kg/ha) was 4.5. For the same molecule, the GLXMAW herbicidal rating ([3]; rate 0.0313 kg/ha) was 6.0, the GLXMAW herbicidal rating ([3]; rate 0.0625 kg/ha) was 6.0 and the GLXMAW herbicidal rating ([3]; rate 0.1250 kg/ha) was 7.5. The AMBEL herbicidal rating (AMBEL (Ragweed, Common); rate 0.0156 kg/ha) was 9.0, the AMBEL herbicidal rating (AMBEL (Ragweed, Common); rate 0.0313 kg/ha) was 9.0 and the AMBEL herbicidal rating (AMBEL (Ragweed, Common); rate 0.0625 kg/ha) was 9.0. The AMBEL herbicidal rating (AMBEL (Ragweed, Common); rate 0.1250 kg/ha) was 9.0, the GALAP herbicidal rating (GALAP (Galium) [4]; rate 0.0156 kg/ha) was 0.0 and the GALAP herbicidal rating (GALAP (Galium) [4]; rate 0.0313 kg/ha) was 1.0. For the same molecule, the GALAP herbicidal rating (GALAP (Galium) [4]; rate 0.0625 kg/ha) was 3.0, the GALAP herbicidal rating (GALAP (Galium) [4]; rate 0.1250 kg/ha) was 5.0 and the ORYSAT herbicidal rating (ORYSAT (Rice, Tebonnet); rate 0.0156 kg/ha) was 1.0. The ORYSAT herbicidal rating (ORYSAT (Rice, Tebonnet); rate 0.0313 kg/ha) was 1.0, the ORYSAT herbicidal rating (ORYSAT (Rice, Tebonnet); rate 0.0625 kg/ha) was 1.5 and the ORYSAT herbicidal rating (ORYSAT (Rice, Tebonnet); rate 0.1250 kg/ha) was 2.5. The “SAGPY herbicidal effect rating” value ([5]; 0.0313 kg/ha) was 3.0, the “SAGPY herbicidal effect rating” value ([5]; 0.0625 kg/ha) was 3.0 and the “SAGPY herbicidal effect rating” value ([5]; 0.1250 kg/ha) was 9.0. The “SAGPY herbicidal effect rating” value ([5]; 0.2500 kg/ha) was 9.0, the CHEAL herbicidal rating ([6]; rate 0.0156 kg/ha) was 2.0 and the CHEAL herbicidal rating ([6]; rate 0.0313 kg/ha) was 4.0. The CHEAL herbicidal rating ([6]; rate 0.0625 kg/ha) was 4.0, the CHEAL herbicidal rating ([6]; rate 0.1250 kg/ha) was 9.0 and the GALAP rating (GALAP (Galium) [7]; 0.0156 kg/ha) was 0.0. It also gave a GALAP rating (GALAP (Galium) [7]; 0.0313 kg/ha) of 0.0, a GALAP rating (GALAP (Galium) [7]; 0.0625 kg/ha) of 0.0 and a GALAP rating (GALAP (Galium) [7]; 0.1250 kg/ha) of 4.0. For the same molecule, the GALAP rating (GALAP (Galium) [7]; 0.2500 kg/ha) was 6.0, the GALAP rating (GALAP (Galium) [7]; 0.5000 kg/ha) was 9.0 and the “CYPSE herbicidal effect rating” value (CYPSE (Flatsedge) [8]; 0.0313 kg/ha) was 0.0. For the same molecule, the “CYPSE herbicidal effect rating” value (CYPSE (Flatsedge) [8]; 0.0625 kg/ha) was 2.0, the “CYPSE herbicidal effect rating” value (CYPSE (Flatsedge) [8]; 0.1250 kg/ha) was 2.0 and the “CYPSE herbicidal effect rating” value (CYPSE (Flatsedge) [8]; 0.2500 kg/ha) was 9.0. For the same molecule, the “Herbicidal rating CYPSE” value (CYPSE (Flatsedge) [9]; Rate 0.0313 kg/ha) was 0.0, the “Herbicidal rating CYPSE” value (CYPSE (Flatsedge) [9]; Rate 0.0625 kg/ha) was 2.0 and the “Herbicidal rating CYPSE” value (CYPSE (Flatsedge) [9]; Rate 0.1250 kg/ha) was 2.0. For the same molecule, the “Herbicidal rating CYPSE” value (CYPSE (Flatsedge) [9]; Rate 0.2500 kg/ha) was 9.0, the “CYPIR herbicidal effect rating” value (CYPIR (Rice Flatsedge); 0.0313 kg/ha) was 3.0 and the “CYPIR herbicidal effect rating” value (CYPIR (Rice Flatsedge); 0.0625 kg/ha) was 7.0. For the same molecule, the “CYPIR herbicidal effect rating” value (CYPIR (Rice Flatsedge); 0.1250 kg/ha) was 9.0, the “CYPIR herbicidal effect rating” value (CYPIR (Rice Flatsedge); 0.2500 kg/ha) was 9.0 and the SETVI herbicidal rating (SETVI (Foxtail, Green); rate 0.0156 kg/ha) was 0.0. The SETVI herbicidal rating (SETVI (Foxtail, Green); rate 0.0313 kg/ha) was 0.0, the SETVI herbicidal rating (SETVI (Foxtail, Green); rate 0.0625 kg/ha) was 9.0 and the SETVI herbicidal rating (SETVI (Foxtail, Green); rate 0.1250 kg/ha) was 9.0.
